The text below walks through data of ChEMBL document CHEMBL1123223, “New effective gonadotropin releasing hormone antagonists with minimal potency for histamine release in vitro” (J Med Chem, 1986).

The species entered for test [1] is Rattus norvegicus. The test can be described thus: Compound was tested in vitro for its ability to inhibit histamine release from rat mast cells. In kind it is functional. The note with it: read-out: ED50 (the source's name).
The species named for test [2] is Rattus norvegicus. In words: GnRH antagonistic dose of compound for 0 rats ovulation out of total 6 using anti-ovulatory assay in experiment 2. In kind it is functional.
The species entered for test [3] is Rattus norvegicus. In words: GnRH antagonistic dose of compound for 2 rats ovulation out of total 10 using anti-ovulatory assay in experiment 1. In kind it is functional.
The target in test [4] is T1, Gonadotropin-releasing hormone receptor (Rattus norvegicus) (UniProt P30969).
T1 sequence (whole entry): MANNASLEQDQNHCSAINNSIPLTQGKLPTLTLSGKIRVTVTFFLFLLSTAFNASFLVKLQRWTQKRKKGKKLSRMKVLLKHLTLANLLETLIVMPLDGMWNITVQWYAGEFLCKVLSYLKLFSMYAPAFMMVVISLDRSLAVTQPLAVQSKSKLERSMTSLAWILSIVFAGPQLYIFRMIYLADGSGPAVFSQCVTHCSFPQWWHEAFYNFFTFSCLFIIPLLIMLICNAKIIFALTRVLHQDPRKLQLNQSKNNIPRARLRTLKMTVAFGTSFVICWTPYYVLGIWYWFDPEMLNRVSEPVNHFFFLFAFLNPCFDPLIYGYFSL
The test can be described thus: Inhibition of GnRH-mediated LH secretion by cultured pituitary cells. In kind it is functional, cell-based. The note with it: Pituitary gland cell.

The species entered for test [5] is Rattus norvegicus. In words: Dissociation constant was determined in rat pituitary cells. The test is classed as cell-based. The note with it: pituitary gland cell.
Test [6] is filed under the species Rattus norvegicus. The test can be described thus: GnRH antagonistic dose of compound for 0 rats ovulation out of total 10 using anti-ovulatory assay in experiment 2. The test is classed as functional.
The species named for test [7] is Rattus norvegicus. In words: GnRH antagonistic dose of compound for 5 rats ovulation out of total 10 using anti-ovulatory assay in experiment 1. The test is classed as functional.

Converted amounts (≈) assume the structure as drawn.

One may read the Kd as the free concentration of one partner at which half of the binding sites on the other are occupied at equilibrium, for simple one-to-one binding. A low value points to tighter binding. For the compound `CC(=O)N[C@H](Cc1ccc2ccccc2c1)C(=O)N[C@H](Cc1ccc(Cl)cc1)C(=O)N[C@H](Cc1cccnc1)C(=O)N[C@@H](CO)C(=O)N[C@@H](CCCN=C(N)N)C(=O)N[C@H](Cc1c[nH]c2ccccc12)C(=O)N[C@@H](CC(C)C)C(=O)N[C@@H](CCCN=C(N)N)C(=O)N1CCC[C@H]1C(=O)N[C@H](C)C(=O)O`, the EC50 in the test filed under Rattus norvegicus [1] is 2.1 µg/mL (≈ 1.44 µM). Also, the ED100 came to 1 µg/kg in the test listed under Rattus norvegicus [2] and 0.5 µg/kg in the test filed under Rattus norvegicus [3]. This compound also returned a Relative potency in test [4] of 0.44. The compound also showed a Kd in the test filed under Rattus norvegicus [5] of 0.96 nM.

On to `CC(=O)N[C@H](Cc1ccc2ccccc2c1)C(=O)N[C@H](Cc1ccc(Cl)cc1)C(=O)N[C@H](Cc1cccnc1)C(=O)N[C@@H](CO)C(=O)N[C@@H](CCCN=C(N)N)C(=O)N[C@H](Cc1cccnc1)C(=O)N[C@@H](CC(C)C)C(=O)N[C@@H](CCCN=C(N)N)C(=O)N1CCC[C@H]1C(=O)N[C@H](C)C(=O)O`, for which, in the test listed under Rattus norvegicus [1], the EC50 came out at 2.9 µg/mL (≈ 2.05 µM). In addition, the ED100 in the test listed under Rattus norvegicus [6] came to 1 µg/kg; in the test listed under Rattus norvegicus [7] it was 0.5 µg/kg. The compound further came in with a Relative potency in test [4] of 0.91. This compound yielded a Kd in the test listed under Rattus norvegicus [5] of 0.24 nM.
